How the values were obtained:
Experiment in all cases: relative viability (nuclei count vs DMSO), 5 days (fraction); higher = more cells survive
SGI-1776 + Luminespib = compound: CN1CCC(CNc2ccc3ncc(-c4cccc(OC(F)(F)F)c4)n3n2)CC1 [SGI-1776] + CCNC(=O)c1noc(-c2cc(C(C)C)c(O)cc2O)c1-c1ccc(CN2CCOCC2)cc1 [Luminespib] (partner 0.01 µM)
How it was run: (§1)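 Lung cancer cell lines, seeded in 1536-well plates, were treated the following day by pin tool with a single drug or with five library-drug doses (not always all listed) in √10 steps on top of a fixed anchor-drug dose. Cells were fixed and nuclei stained in one step after 5 days, and nuclei were counted. Relative viability is the nuclei count for treated wells divided by that for vehicle wells, reported as medians of duplicate plates.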

SGI-1776 + Foretinib = compound: CN1CCC(CNc2ccc3ncc(-c4cccc(OC(F)(F)F)c4)n3n2)CC1 [SGI-1776] + COc1cc2c(Oc3ccc(NC(=O)C4(C(=O)Nc5ccc(F)cc5)CC4)cc3F)ccnc2cc1OCCCN1CCOCC1 [Foretinib] (partner 0.25 µM)
How it was run: as §1

Entinostat + OSI-027 = compound: Nc1ccccc1NC(=O)c1ccc(CNC(=O)OCc2cccnc2)cc1 [Entinostat] + COc1cccc2cc(-c3nc([C@H]4CC[C@H](C(=O)O)CC4)n4ncnc(N)c34)[nH]c12 [OSI-027] (partner 0.5 µM)
How it was run: as §1

Entinostat + Pemetrexed = compound: Nc1ccccc1NC(=O)c1ccc(CNC(=O)OCc2cccnc2)cc1 [Entinostat] + Nc1nc2[nH]cc(CCc3ccc(C(=O)N[C@@H](CCC(=O)O)C(=O)O)cc3)c2c(=O)[nH]1 [Pemetrexed] (partner 0.2 µM)
How it was run: as §1

UMC-11
relative viability (SGI-1776 + Luminespib; first compound 0.08 µM): 1.02 | relative viability (SGI-1776 + Luminespib; first compound 0.8 µM): 0.971 | relative viability (SGI-1776 + Luminespib; first compound 2.53 µM): 0.899 | relative viability (SGI-1776 + Luminespib; first compound 8 µM): 0.862 | relative viability (SGI-1776 + Foretinib; first compound 0.08 µM): 1.02 | relative viability (SGI-1776 + Foretinib; first compound 0.8 µM): 1.03 | relative viability (SGI-1776 + Foretinib; first compound 2.53 µM): 1.08 | relative viability (SGI-1776 + Foretinib; first compound 8 µM): 0.791 | relative viability (Entinostat + OSI-027; first compound 0.02 µM): 0.445 | relative viability (Entinostat + OSI-027; first compound 0.06325 µM): 0.499 | relative viability (Entinostat + OSI-027; first compound 0.2 µM): 0.388 | relative viability (Entinostat + OSI-027; first compound 0.6325 µM): 0.207 | relative viability (Entinostat + OSI-027; first compound 2 µM): 0.213 | relative viability (Entinostat + Pemetrexed; first compound 0.02 µM): 0.733 | relative viability (Entinostat + Pemetrexed; first compound 0.06325 µM): 0.738 | relative viability (Entinostat + Pemetrexed; first compound 0.2 µM): 0.5 | relative viability (Entinostat + Pemetrexed; first compound 0.6325 µM): 0.346 | relative viability (Entinostat + Pemetrexed; first compound 2 µM): 0.145

— the supplement of paper PMC10307832
